In US6936585B2, “Corticotropin releasing factor 2 receptor agonists” (priority 2002, dated 2005):
Peptide text beside a SMILES is read from it.

Key:
CRF1R = molecular target: T1, CRF1R (Homo sapiens, UniProt P34998); assay: CRF1R agonist activation (EC50 / Emax), called comparative CRF binding; assay type: cell-based; details: for Emax: read-out: CRF1R Emax
T1 sequence (P34998 24-415): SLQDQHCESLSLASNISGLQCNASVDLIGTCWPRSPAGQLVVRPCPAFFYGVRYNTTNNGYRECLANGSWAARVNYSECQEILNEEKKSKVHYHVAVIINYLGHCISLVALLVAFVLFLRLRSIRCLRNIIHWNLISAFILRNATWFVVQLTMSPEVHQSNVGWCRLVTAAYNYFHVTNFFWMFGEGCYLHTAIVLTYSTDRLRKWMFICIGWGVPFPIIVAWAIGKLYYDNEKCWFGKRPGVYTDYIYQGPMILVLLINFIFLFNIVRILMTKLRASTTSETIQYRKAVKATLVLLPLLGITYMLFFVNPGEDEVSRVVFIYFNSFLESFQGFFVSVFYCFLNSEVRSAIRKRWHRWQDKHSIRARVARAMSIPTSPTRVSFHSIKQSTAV
Procedure, shortened: (§1)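 Cells expressing human CRF1R or CRF2R are exposed to peptide or vehicle control, and receptor activation is read as cAMP induction, measured in cell lysates or via a CRE-linked reporter gene.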

CRF2R = molecular target: T2, CRF2R (Homo sapiens, UniProt Q13324); assay: CRF2R agonist activation (EC50 / Emax), called comparative CRF binding; assay type: cell-based; details: for Emax: read-out: CRF2R Emax
T2 sequence (Q13324 1-411): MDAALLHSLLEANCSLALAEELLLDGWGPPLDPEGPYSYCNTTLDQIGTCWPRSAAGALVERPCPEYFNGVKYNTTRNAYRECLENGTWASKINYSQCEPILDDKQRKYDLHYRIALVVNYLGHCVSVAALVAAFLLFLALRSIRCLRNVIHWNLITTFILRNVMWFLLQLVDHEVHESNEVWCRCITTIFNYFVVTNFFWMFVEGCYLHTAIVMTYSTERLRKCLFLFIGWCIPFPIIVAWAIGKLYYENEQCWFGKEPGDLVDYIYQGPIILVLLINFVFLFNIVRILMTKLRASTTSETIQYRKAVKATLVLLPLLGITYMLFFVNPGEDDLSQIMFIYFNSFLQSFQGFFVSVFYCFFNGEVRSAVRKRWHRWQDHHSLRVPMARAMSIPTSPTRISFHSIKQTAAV
Procedure, shortened: as §1

| Compound | Emax (CRF1R) [%] | Emax (CRF2R) [%] | EC50 (CRF1R; read-out: CRF1R EC50) [nM] | EC50 (CRF2R; read-out: CRF2R EC50) [nM] |
| --- | --- | --- | --- | --- |
| CC[C@H](C)[C@H](NC(=O)[C@H](C)NC(=O)[C@H](CC(N)=O)NC(=O)[C@H](CCC(N)=O)NC(=O)[C@H](CCC(=O)O)NC(=O)[C@H](C)NC(=O)[C@H](CCCNC(=N)N)NC(=O)[C@H](CCC(=O)O)NC(=O)[C@H](CCCNC(=N)N)NC(=O)[C@H](CCC(N)=O)NC(=O)[C@H](CO)NC(=O)[C@H](CCC(N)=O)NC(=O)[C@@H](NC(=O)[C@H](CCCCN)NC(=O)[C@H](CCC(=O)O)NC(=O)[C@H](CC(C)C)NC(=O)[C@H](CCC(=O)O)NC(=O)[C@H](CC(C)C)NC(=O)[C@H](CC(C)C)NC(=O)[C@@H](NC(=O)[C@H](CCCNC(=N)N)NC(=O)[C@H](CC(C)C)NC(=O)[C@H](CC(C)C)NC(=O)[C@H](CC(C)C)NC(=O)[C@H](CC(C)C)NC(=O)[C@@H]1CCCN1C(=O)[C@H](CC(C)C)NC(=O)[C@H](CC(=O)O)NC(=O)[C@@H](NC(=O)[C@H](CO)NC(=O)[C@H](CC(C)C)NC(=O)[C@H](CO)NC(=O)[C@@H]1CCCN1C(=O)[C@H](CC(N)=O)NC(=O)[C@@H](N)CC(=O)O)[C@@H](C)CC)[C@@H](C)O)[C@@H](C)O)C(=O)N[C@H](C(=O)N[C@@H](Cc1ccccc1)C(=O)N[C@@H](C)C(=O)N[C@@H](CO)C(=O)N[C@H](C(N)=O)C(C)C)[C@@H](C)CC [compound 346] (H-DNPSLSIDLPLLLLRTLLELEKTQSQRERAEQNAIIFASV-NH2; N-terminus assumed) | 59 | 97.8 |  |  |
| CC[C@H](C)[C@H](N)C(=O)N[C@H](C(=O)N[C@@H](CC(C)C)C(=O)N[C@@H](CO)C(=O)N[C@@H](CC(C)C)C(=O)N[C@@H](CC(=O)O)C(=O)N[C@H](C(=O)N1CCC[C@H]1C(=O)N[C@H](C(=O)NCC(=O)N[C@@H](CC(C)C)C(=O)N[C@@H](CC(C)C)C(=O)N[C@@H](CCC(N)=O)C(=O)N[C@H](C(=O)N[C@@H](CC(C)C)C(=O)N[C@@H](CC(C)C)C(=O)N[C@@H](CCC(=O)O)C(=O)N[C@@H](CCCCN)C(=O)N[C@@H](C)C(=O)N[C@@H](C)C(=O)N[C@@H](C)C(=O)N[C@@H](CCC(=O)O)C(=O)N[C@@H](C)C(=O)N[C@@H](CCC(=O)O)C(=O)N[C@@H](C)C(=O)N[C@@H](C)C(=O)N[C@@H](C)C(=O)N[C@@H](CCCCN)C(=O)N[C@@H](C)C(=O)N[C@@H](C)C(=O)N[C@@H](CCC(N)=O)C(=O)N[C@@H](CCC(=O)O)C(=O)N[C@@H](CCC(N)=O)C(=O)N[C@H](C(=O)N[C@@H](CC(C)C)C(=O)N[C@@H](C)C(=O)N[C@@H](Cc1c[nH]cn1)C(=O)N[C@H](C(N)=O)C(C)C)[C@@H](C)CC)[C@@H](C)CC)[C@@H](C)CC)C(C)C)C(C)C [compound 366] (H-IVLSLDVPIGLLQILLEKAAAEAEAAAKAAQEQILAHV-NH2) | 9 | 46 |  |  |
| CC[C@H](C)[C@H](N)C(=O)N[C@H](C(=O)N[C@@H](CC(C)C)C(=O)N[C@@H](CO)C(=O)N[C@@H](CC(C)C)C(=O)N[C@@H](CC(=O)O)C(=O)N[C@H](C(=O)N1CCC[C@H]1C(=O)N[C@H](C(=O)NCC(=O)N[C@@H](CC(C)C)C(=O)N[C@@H](CC(C)C)C(=O)N[C@@H](CCC(N)=O)C(=O)N[C@H](C(=O)N[C@@H](CC(C)C)C(=O)N[C@@H](CC(C)C)C(=O)N[C@@H](CCC(=O)O)C(=O)N[C@@H](CCC(N)=O)C(=O)N[C@@H](C)C(=O)N[C@@H](CCCNC(=N)N)C(=O)N[C@@H](Cc1c[nH]cn1)C(=O)N[C@@H](C)C(=O)N[C@@H](C)C(=O)N[C@@H](C)C(=O)N[C@@H](Cc1c[nH]cn1)C(=O)N[C@@H](C)C(=O)N[C@@H](C)C(=O)N[C@@H](C)C(=O)N[C@@H](Cc1c[nH]cn1)C(=O)N[C@@H](C)C(=O)N[C@@H](CCC(N)=O)C(=O)N[C@@H](C)C(=O)N[C@@H](Cc1c[nH]cn1)C(=O)N[C@H](C(=O)N[C@@H](CC(C)C)C(=O)N[C@@H](C)C(=O)N[C@@H](Cc1c[nH]cn1)C(=O)N[C@H](C(N)=O)C(C)C)[C@@H](C)CC)[C@@H](C)CC)[C@@H](C)CC)C(C)C)C(C)C [compound 367] (H-IVLSLDVPIGLLQILLEQARHAAAHAAAHAQAHILAHV-NH2) | 6 | 18 | ≥ 1000 | ≥ 100 |
